Measurements reported in publication PMC12116762, “Topobexin targets the Topoisomerase II ATPase domain for beta isoform-selective inhibition and anthracycline cardioprotection” (Nature Communications, 2025).
“And” between values parts separate entries of the source, which are not always exact repeats. Equal entries are not always repeated.

How the values were obtained:
rabbits = assay: Chronic anthracycline cardiotoxicity model in rabbits
Method: Thirty-eight rabbits were used for this purpose using the following study design. Chronic cardiotoxicity was induced by DAU (3 mg/kg, i.v., once weekly for 10 weeks, n = 11), while the control group received the same volume of saline (1 ml/kg, n = 9) in the same way. […] Animal survival was monitored daily, while body weight change was recorded weekly. The experiment was scheduled to end a week after the last dosing of the compounds studied.
Cardiac damage induced by DAU was quantified by determination of cardiac troponin T in plasma before the 1st, 5th, 8th and 10th doses and at the end of the study using a high sensitivity assay (Elecsys Troponin T high sensitive STAT test, Roche Diagnostics, Switzerland, detection limit of 0.003 μg/L). The area under curve (AUC) of the plasma concentration of cardiac troponin T was determined using GraphPad Prism.
The systolic function of the LV was examined throughout the experiment without invasiveness using echocardiography (Vivid 4, probe 10.5 MHz, GE HeathCare) and invasively at the scheduled end of the experiment using LV catheterization (a Millar catheter 2.3 F, Millar Instruments, USA). In the echocardiography examination, the M-mode was used to determine the dimensions of the LV and the fractional shortening of the LV (LVFS) was calculated as an index of systolic function as described previously[46]. Similarly, from the change in LV pressures determined by catheterization of the LV, dP/dtmax was calculated as an index of systolic function as previously described[47]. Statistical significance was determined using one way ANOVA followed by the Holm–Sidak post hoc test or Kruskal–Wallis ANOVA on ranks followed by Dunn’s post hoc test according to the data distribution.
During necropsy, heart was rapidly excised, washed in cold saline and LV free wall was snap frozen in liquid nitrogen. After homogenization in liquid nitrogen, aliquots (aprox. 50 mg) were stored at -80 °C and used for PCR analysis of molecular markers of cardiotoxicity. Total RNA was isolated from rabbit LV myocardium using TRIzol reagent (Sigma-Aldrich). After reverse transcription using a High-Capacity cDNA Reverse Transcription Kit, qPCR was performed with TaqMan Fast Universal PCR Master Mix on QuantStudio 7 Flex Real-Time PCR System (all from Applied Biosystems, Foster City). […] Mean threshold cycle values were transformed into relative expression using the Pfaffl method. Commercial gene expression assays were obtained from Applied Biosystems and Generi Biotech (Hradec Králové, Czech Republic). The expression data were normalized by Hprt1 expression. Statistical significance was determined using one way ANOVA followed by the Holm–Sidak post hoc test or Kruskal–Wallis ANOVA on ranks followed by Dunn’s post hoc test according to the data distribution.

γH2AX = γH2AX levels in HL-60 cells (Western blotting); assay type: cell-based, human; details: DAU 1.2 µM alone (mean = 100); Suppl.Fig.8d
[1] = tested on: neonatal rat ventricular cardiomyocytes (NVCM); assay: Protection against DAU-induced cytotoxicity (LDH release) in NVCM; assay type: cell-based; set-up: key to Suppl.Fig.3 DAU-induced cytotoxicity (LDH release) in NVCM, mean of independent replicates / LDH release (DAU-induced cytotoxicity), mean of independent replicates: % of total LDH activity; details: DAU 1.2 µM alone; for LDH release (DAU-induced cytotoxicity), mean of independent replicates: NVCM
Method in brief: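 Primary neonatal Wistar rat cardiomyocytes in serum- and pyruvate-free DMEM/F12 were pretreated with compound 3 h, then co-incubated 3 h with DAU (1.2 µM), or without DAU for inherent toxicity, then given a 48 h drug-free follow-up. Medium LDH activity (NAD+ reduction at 340 nm) expressed as % of total LDH.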

caspase 9 = assay: Caspase 9 activity in NVCM (Caspase-Glo); assay type: cell-based, rat; details: DAU 1.2 μM alone
Method: (§1) Caspase activity was assessed on NVCM cells using luciferase-based kits for caspase 3/7, 8 and 9 (Caspase-Glo® 3/7, 8 and 9 assay systems; Promega) according to the manufacturer’s instructions on 384-well plates (Greiner Bio-One). Luminescence signal was measured using Tecan M200 multifunctional plate-reader. All measured groups were corrected for total protein concentration (BCA assay) and were expressed as fold change of the signal over corresponding untreated control group. Each presented data point was obtained from distinct sample. Statistical significance was determined using ratio paired t-test, two-tailed.

caspase 3/7 = assay: Caspase 3/7 activity in NVCM (Caspase-Glo); assay type: cell-based, rat; details: DAU 1.2 μM alone
Method: as §1

## COc1cccc2c1C(=O)c1c(O)c3c(c(O)c1C2=O)C[C@@](O)(C(C)=O)C[C@@H]3O[C@H]1C[C@H](N)[C@H](O)[C@H](C)O1 [DAU, daunorubicin, reference compound]
rabbits; DAU 3 mg/kg weekly, 10 weeks
  premature death: one premature death
rabbits; DAU alone, individual animals
  Body weight gain: 111.6 and 102.0 and 134.7 and 116.1 and 99.5 and 98.2 and 106.3 and 117.5 and 112.5 and 97.6 and 92.2
  Brain natriuretic peptide mRNA, LV myocardium: 3.43 and 7.71 and 11.23 and 1.53 and 3.70 and 14.27 and 5.99 and 15.03 and 2.12 and 2.78
  Collagen I alpha 1 mRNA: 1.89 and 3.79 and 5.05 and 1.80 and 2.15 and 7.04 and 4.33 and 8.95 and 1.98 and 2.03
  Fibronectin 1 mRNA: 2.75 and 11.42 and 16.69 and 2.86 and 6.76 and 33.96 and 11.80 and 25.41 and 3.99 and 2.01
  LV FS (LMV): 35.5 and 28.3 and 21.8 and 37.5 and 22.5 and 33.0 and 26.0 and 35.8
  LV dP/dtmax: 4037 and 6946 and 6956 and 5174 and 3773 and 6731 and 5382 and 6442
  Δ LV FS (LMV): -7.5 and -6.8 and -15.3 and -22.3 and -4.5 and -6.0 and -18.5 and -9.0 and -16.5 and -17.5 and -9.2
γH2AX
  γH2AX level, mean of independent replicates: 100
[1]; 48 h
  LDH release, mean: 50.9581 % of total LDH and 40.9598 % of total LDH and 38.3367 % of total LDH
[1]; 48 h, independent replicates
  LDH release: 42.9177 % of total LDH and 49.9715 % of total LDH and 51.9004 % of total LDH and 59.0427 % of total LDH and 48.4333 % of total LDH and 43.9079 % of total LDH and 36.1066 % of total LDH and 35.3914 % of total LDH and 37.5065 % of total LDH and 36.8503 % of total LDH and 39.0464 % of total LDH and 39.9436 % of total LDH
[1]; Suppl.Fig.6b
  LDH release (DAU-induced cytotoxicity), mean of independent replicates: 49.0741 and 44.6225 and 40.9598 and 43.4866
[1]; Suppl.Fig.8a
  LDH release (DAU-induced cytotoxicity), mean of independent replicates: 50.2853
[1]; one value per experiment set (compound block)
  Suppl.Fig.3 DAU-induced cytotoxicity (LDH release) in NVCM, mean of independent replicates: 52.5555 and 50.9581 and 43.2031 and 52.6717 and 39.8455 and 40.6658 and 38.8384 and 49.4177 and 40.4688 and 38.0883 and 38.3367 and 37.1578 and 50.485 and 47.9698 and 52.8733 and 52.0892 and 42.039 and 50.4287
Caspase 9
  Csp9 activity, mean: 2.579 fold change
Caspase 9; independent replicates
  Csp9 activity: 1.742 fold change and 1.782 fold change and 3.523 fold change and 1.858 fold change and 4.0027 fold change and 2.565 fold change
Caspase 3/7
  Csp3/7 activity, mean: 3.236 fold change
Caspase 3/7; independent replicates
  Csp3/7 activity: 2.392 fold change and 2.445 fold change and 4.746 fold change and 2.53 fold change and 4.167 fold change and 3.136 fold change
